Measurements published in publication PMC9774939, “Optimization of Pyrazole Compounds as Antibiotic Adjuvants Active against Colistin- and Carbapenem-Resistant Acinetobacter baumannii” (Antibiotics, 2022).
In brackets after ≈: the same amount, converted by molar mass.

Tests used:
[1] = system: bacterial reference strains; test: Broth microdilution MIC, direct activity; assay type: cell-based
Protocol: (§1) The minimum inhibitory concentration (MIC) and minimum bactericidal concentration (MBC) of the compounds were determined in triplicate using Mueller–Hinton broth and a bacterial inoculum of 5 × 10^5 CFU/mL, as recommended by the CLSI [26]. The minimum antibacterial concentration (MAC) of the compounds was determined in the presence of a fixed and subinhibitory concentration of colistin (as mentioned above).

[2] = system: eight reference strains, Gram-positive and Gram-negative; test: Agar diffusion test, direct antibacterial activity; assay type: cell-based; conditions: for direct-acting antibacterial activity (agar diffusion): eight reference strains; for growth inhibition zone diameter: agar diffusion, on Gram-positive organisms
Protocol: Compounds 3–40, 42, 44–47, and 49 (Scheme 1, Scheme 2, Scheme 3, Scheme 4 and Scheme 5) were subjected to a detailed investigation of their direct and synergistic antibacterial activity and potential cytotoxicity by using several methods. The direct antibacterial activity of these compounds was determined using both agar diffusion and broth microdilution methods. The former was initially used to identify potentially active compounds and was tested on eight reference strains, with representatives of both Gram-positive and Gram-negative clinically relevant bacterial species or genera (Figure 4).
The compounds were provided as powders and dissolved in 100% DMSO at a final concentration of 50 mg/mL. When a compound was not soluble, DMSO was further added to lower the concentration to 25 mg/mL or, when necessary, 12.5 or 6.25 mg/mL, until the compound was completely solubilized. The primary screen used in the evaluation of the direct antibacterial activity through an agar diffusion test was implemented on a 8-channel, automated liquid-handling platform (PerkinElmer Janus Integrator, Waltham, Mass.), which was located under a custom-made class 1000 laminar flow cabinet (Faster, Cornaredo, Italy). Briefly, 1-well plates (Thermo Fisher Scientific, Waltham, Mass.), previously filled with Mueller–Hinton Agar medium, were inoculated with a suspension of the bacterium in a sterile 0.9% NaCl solution containing 1.5 × 10^8 CFU/mL, using a sterile swab. Indicator organisms included 4 Gram-positive (Bacillus subtilis ATCC 6633, Enterococcus faecalis ATCC 29212, Staphylococcus epidermidis ATCC 14990, and Streptococcus pyogenes ATCC 12344) and 4 Gram-negative (Escherichia coli CCUG^T, Klebsiella pneumoniae ATCC 13833, Pseudomonas aeruginosa ATCC 27853, and Acinetobacter baumannii ATCC 17978) strains, which were routinely propagated using Mueller–Hinton Agar plates. In total, 2 μL of each solution of compounds was dispensed on the plate surface (corresponding to 100, 50, 25, or 12.5 μg of compound according to its solubility). The controls included the solvent (100% DMSO), kanamycin, piperacillin, ceftazidime, vancomycin, and teicoplanin. The results were recorded as the diameter of the growth inhibition zone. The inhibition zones of the controls (max variation from expected diameter, ± 1 mm) were used as the validation criteria. The assays were performed at least in duplicate, and the position in which a single compound was spotted on the plate was randomly modified in any successive experiment.

[3] = system: Acinetobacter baumannii ATCC 17978; test: MAC determination in the presence of subinhibitory colistin; assay type: cell-based; conditions: for MAC Aba: in the presence of 0.5 × MIC colistin; for MIC/MAC Ratio Aba: minimal ratio of MIC of compound alone to MAC with 0.5 × MIC colistin
Protocol: as §1

Escherichia coli CCUG^T = test: as above; assay type: cell-based; parameters: key to MAC Eco: -: No synergistic activity; conditions: for MAC Eco: in the presence of 0.5 × MIC colistin; for MIC/MAC Ratio Eco: minimal ratio of MIC of compound alone to MAC with 0.5 × MIC colistin
Protocol: as §1

[4] = system: Klebsiella pneumoniae ATCC 13833; test: as above; assay type: cell-based; parameters: key to MAC Kpn: -: No synergistic activity; conditions: for MAC Kpn: in the presence of 0.5 × MIC colistin; for MIC/MAC Ratio Kpn: minimal ratio of MIC of compound alone to MAC with 0.5 × MIC colistin
Protocol: as §1

Enterococcus faecalis = test: Broth microdilution MIC; assay type: cell-based; conditions: compound alone
Protocol: as §1

Staphylococcus aureus = test: Broth microdilution MIC; assay type: cell-based; conditions: compound alone
Protocol: as §1

Streptococcus pyogenes = test: Broth microdilution MIC; assay type: cell-based; conditions: compound alone
Protocol: as §1

Bacillus subtilis = test: Broth microdilution MIC; assay type: cell-based; conditions: compound alone
Protocol: as §1

[5] = system: Acinetobacter baumannii N50; test: MBC determination in the presence of colistin; assay type: cell-based; conditions: in the presence of 2 µg/mL of colistin
Protocol: as §1

K. pneumoniae SI-004Bo = test: Chequerboard analysis with colistin; assay type: cell-based, Klebsiella pneumoniae; conditions: combination with colistin; pandrug-resistant, colistin-resistant isolate
Text: (§2) Carbapenem-resistant, colistin-resistant, and XDR clinical isolates were kindly provided by Prof. Gian Maria Rossolini (University of Florence, Italy). Klebsiella pneumoniae SI-004Bo is a KPC-producing, pandrug-resistant isolate (KKBO-4 [17]) selected in vivo during colistin therapy (colistin resistance mechanism, IS-mediated insertional inactivation of mgrB). Acinetobacter baumannii N50 is an OXA-24-producing clinical isolate resistant to all β-lactams, aminoglycosides, and fluoroquinolones.
(§3) The chequerboard analysis is a two-dimensional array in which individual microplate wells contain a unique combination of the concentrations of the tested compound and colistin. Tested concentrations of the compound ranged from 64 to 0.06 μg/mL along the x-axis, whereas polymyxin E1 concentrations ranged from 2 to 0.03 μg/mL (or 32–0.5 μg/mL when polymyxin E1-resistant clinical isolates were used) and varied along the y-axis. Determining the fractional inhibitory concentration (FIC) of both compounds and computing the average FIC index allowed us to determine whether a synergistic, additive, or antagonistic activity between the tested compounds could be observed. A synergistic activity occurred when the average FIC index was equal to or less than 0.5 [21, 27].

A. baumannii ATCC 17978 = test: Chequerboard analysis with colistin; assay type: cell-based, Acinetobacter baumannii; conditions: combination with colistin; synergy when ≤0.5
Protocol: as §3

A. baumannii N50 = test: Chequerboard analysis with colistin; assay type: cell-based, Acinetobacter baumannii; conditions: combination with colistin; MDR, colistin-resistant isolate
Text: as §2, §3

K. pneumoniae ATCC 13833 = test: Chequerboard analysis with colistin; assay type: cell-based, Klebsiella pneumoniae; conditions: combination with colistin; synergy when ≤0.5
Protocol: as §3

Hemolytic activity = assay type: cell-based; conditions: 0.025–10 μg of compound
Protocol: The hemolytic activity of compounds 1, 2, 8, 9, 45, and 49 (0.025–10 μg) was investigated using the method described by Bechlars et al.. Triton X-100 was used as the hemolysis control and DMSO as the negative control.

E. coli CCUG^T = test: Chequerboard analysis with colistin; assay type: cell-based, Escherichia coli; conditions: combination with colistin; synergy when ≤0.5
Protocol: as §3

SMILES	MIC [1] [µg/mL]	melting point [°C]	direct-acting antibacterial activity (agar diffusion) [2]	MIC (Enterococcus faecalis) [µg/mL]	MIC (Staphylococcus aureus) [µg/mL]	MIC (Streptococcus pyogenes) [µg/mL]	MIC (Bacillus subtilis) [µg/mL]	growth inhibition zone diameter [2]	further results
O=C(O)CNC(=O)c1cnn(-c2ccccc2)c1-n1cccc1 [Compound 15, [[[1-Phenyl-5-(1H-pyrrol-1-yl)-1H-pyrazol-4-yl]carbonyl]amino]acetic Acid]	≥ 512	191 to 194	broad-spectrum, though moderate, direct-acting antibacterial activity						
C[C@H](NC(=O)c1cnn(-c2ccccc2)c1-n1cccc1)C(=O)O [Compound 16, (S)-2-[[[1-Phenyl-5-(1H-pyrrol-1-yl)-1H-pyrazol-4-yl]carbonyl]amino]propanoic Acid]	≥ 512	142 to 145	broad-spectrum, though moderate, direct-acting antibacterial activity						
CC(C)[C@H](NC(=O)c1cnn(-c2ccccc2)c1-n1cccc1)C(=O)O [Compound 17, (S)-3-Methyl-2-[[[1-phenyl-5-(1H-pyrrol-1-yl)-1H-pyrazol-4-yl]carbonyl]amino]butanoic Acid]	≥ 512	150 to 152	broad-spectrum, though moderate, direct-acting antibacterial activity						
C[C@H](NC(=O)CNC(=O)c1cnn(-c2ccccc2)c1-n1cccc1)C(=O)O [Compound 19, N-[N-[[1-Phenyl-5-(1H-pyrrol-1-yl)-1H-pyrazol-4-yl]carbonyl]glycyl]-L-alanine]	≥ 512	80 to 84	broad-spectrum, though moderate, direct-acting antibacterial activity						
Cc1c(C(=O)N[C@@H](Cc2ccccc2)C(=O)OC(C)(C)C)nn(-c2c(Cl)cc(Cl)cc2Cl)c1-n1c(C)ccc1C [Compound 39, tert-Butyl (S)-3-Phenyl-2-[[[4-methyl-1-(2,4,6-trichlorophenyl)-5-(2,5-dimethyl-1H-pyrrol-1-yl)-1H-pyrazol-3-yl]carbonyl]amino]propanoate]		72 to 81							MAC Aba [3]: 32 µg/mL; MIC/MAC Ratio Aba [3]: 16; MAC Eco (Escherichia coli CCUG^T): -; MAC Kpn [4]: -
Cc1c(C(=O)Nc2ccc(C(=O)O)cc2)nn(-c2ccc(Cl)cc2)c1-n1cccc1 [Compound 40, 4-[[[1-(4-Chlorophenyl)-4-methyl-5-(1H-pyrrol-1-yl)-1H-pyrazol-3-yl]carbonyl]amino]benzoic Acid]		> 250		32 (≈ 76 µM)	32 (≈ 76 µM)	16 (≈ 38 µM)	32 (≈ 76 µM)	up to 18 mm	
Cc1c(C(=O)Nc2cccc(C(=O)O)c2)nn(-c2ccc(Cl)cc2)c1-n1cccc1 [Compound 42, 3-[[[1-(4-Chlorophenyl)-4-methyl-5-(1H-pyrrol-1-yl)-1H-pyrazol-3-yl]carbonyl]amino]benzoic Acid]	≥ 512	248 to 250	broad-spectrum, though moderate, direct-acting antibacterial activity	32 (≈ 76 µM)	32 (≈ 76 µM)	16 (≈ 38 µM)	32 (≈ 76 µM)	up to 18 mm	
Cc1c(C(=O)Nc2ccccc2C(=O)O)nn(-c2ccc(Cl)cc2)c1-n1cccc1 [Compound 44, 2-[[[1-(4-Chlorophenyl)-4-methyl-5-(1H-pyrrol-1-yl)-1H-pyrazol-3-yl]carbonyl]amino]benzoic Acid]		270 to 272		32 (≈ 76 µM)	32 (≈ 76 µM)	16 (≈ 38 µM)	32 (≈ 76 µM)	up to 18 mm	
Cc1c(C(=O)Nc2ccc(O)cc2)nn(-c2ccc(Cl)cc2)c1-n1cccc1 [Compound 45, 1-(4-Chlorophenyl)-N-(4-hydroxyphenyl)-4-methyl-5-(1H-pyrrol-1-yl)-1H-pyrazole-3-carboxamide]		226 to 228							MBC [5]: > 64 µg/mL; Average FIC Index (K. pneumoniae SI-004Bo): 1; Average FIC Index (A. baumannii ATCC 17978): 0.31; MAC Aba [3]: 8 µg/mL; MIC/MAC Ratio Aba [3]: 64; MAC Eco (Escherichia coli CCUG^T): 4 µg/mL; MIC/MAC Ratio Eco (Escherichia coli CCUG^T): 128; Average FIC Index (A. baumannii N50): 0.26; Average FIC Index (K. pneumoniae ATCC 13833): 0.31; hemolytic activity (Hemolytic activity): no hemolytic activity could be observed; MAC Kpn [4]: 4 µg/mL; MIC/MAC Ratio Kpn [4]: 128; Average FIC Index (E. coli CCUG^T): 0.31
CCOC(=O)NS(=O)(=O)c1ccc(NC(=O)c2nn(-c3ccc(Cl)cc3)c(-n3cccc3)c2C)cc1 [Compound 47, Ethyl [[4-[1-(4-Chlorophenyl)-4-methyl-5-(1H-pyrrol-1-yl)-1H-pyrazole-3-carboxamido]phenyl]sulfonyl]carbamate]		188 to 190		32 (≈ 60.6 µM)	32 (≈ 60.6 µM)	16 (≈ 30.3 µM)	32 (≈ 60.6 µM)	up to 18 mm	
Cc1c(C(=O)Nc2ccc(S(C)(=N)=O)cc2)nn(-c2ccc(Cl)cc2)c1-n1cccc1 (centres unmarked) [Compound 49, 1-(4-Chlorophenyl)-4-methyl-N-[4-(S-methylsulfonimidoyl)phenyl]-5-(1H-pyrrol-1-yl)-1H-pyrazole-3-carboxamide]		207 to 210							MBC [5]: > 64 µg/mL; Average FIC Index (K. pneumoniae SI-004Bo): 1; Average FIC Index (A. baumannii ATCC 17978): 0.38; MAC Aba [3]: 8 µg/mL; MIC/MAC Ratio Aba [3]: 64; MAC Eco (Escherichia coli CCUG^T): 8 µg/mL; MIC/MAC Ratio Eco (Escherichia coli CCUG^T): 64; Average FIC Index (A. baumannii N50): 0.31; Average FIC Index (K. pneumoniae ATCC 13833): 0.39; hemolytic activity (Hemolytic activity): no hemolytic activity could be observed; MAC Kpn [4]: 4 µg/mL; MIC/MAC Ratio Kpn [4]: 128; Average FIC Index (E. coli CCUG^T): 0.32
